Reference: patent US11833148B2, “Methods for treating or limiting development of cardiovascular disease-related neurological disorders” (ARIZONA BOARD OF REGENTS ON BEHALF OF THE UNIVERSITY OF …, priority 2018, dated 2023)
Entries after “also recorded” stand apart in the source; their conditions may differ.

Experiments:
Assay type in all cases: in vivo
TAC mice [1] = experiment: Blood pressure by tail cuff in trans-aortic constriction (TAC) mice; settings: daily SQ 2 mg/kg/mouse; for diastolic blood pressure / mean arterial pressure (MAP): approximately 5-6 weeks post-surgery, 30 minutes after dosing, compared to saline treated TAC mice
Method: FIG. 1 is a graph showing the effects of treatment on systolic blood pressure. At approximately 5-6 weeks post-surgery, systolic blood pressure was measured 30 minutes after dosing by tail cuff.
FIG. 2 is a graph showing the effects of treatment on diastolic blood pressure. At approximately 5-6 weeks post-surgery, diastolic blood pressure was measured 30 minutes after dosing by tail cuff.
FIG. 3 is a graph showing the effects of treatment on mean arterial pressure (MAP). At approximately 5-6 weeks post-surgery, mean arterial pressure was measured 30 minutes after dosing by tail cuff.
(§1) Treatment was initiated one week after TAC surgery (daily SQ injections at a dose of 2 mg/kg/mouse) when aortic constriction was confirmed. The treatment groups (n=12 per groups) included sham surgery controls treated with saline, TAC surgery controls treated with saline, TAC surgery animals treated with A (1-7), TAC surgery animals treated with Compound 7 and TAC surgery animals treated with Compound 10. Blood pressure was measured approximately 5-6 weeks after surgery by tail cuff and unaffected by Compound 7 or Compound 10. […] Novel object recognition (NOR) is a test of non-spatial memory. […] The preference of the animal for a novel object over a familiar object exploits the natural tendency of rodents to explore novel objects, was tested 10 weeks after surgery.

TAC mice [2] = experiment: Novel object recognition (NOR) test in TAC mice; settings: daily SQ 2 mg/kg/mouse, 10 weeks post-surgery, compared to saline treated TAC mice
Method: FIG. 4 is a graph showing the effects of treatment on novel object recognition (NOR). At 10 weeks post-surgery, the mice underwent NOR test to assess cognitive function.
as §1

[3] = tested on: hippocampal cytokine levels (IL-2, IL-10, IL-4, IL-5, IL-6, IL-12p70, IFNγ, KC/GRO, TNFα, IL-10); experiment: Hippocampal cytokine levels in TAC mice by multi-plexed immunoassay (Meso Scale Discovery); settings: daily SQ 2 mg/kg/mouse, compared to saline treated TAC controls, data not shown
Method: as §1

TAC mice [4] = experiment: Observation of adverse events after TAC surgery combined with Mas agonist treatment; settings: daily SQ 2 mg/kg/mouse
Method: as §1

| Compound | blood pressure (TAC mice [1]; approximately 5-6 weeks after surgery) | diastolic blood pressure (TAC mice [1]) | mean arterial pressure (MAP) (TAC mice [1]) | novel object recognition (NOR) memory / cognitive function (TAC mice [2]) | hippocampal levels of all cytokines tested (IL-2, IL-10, IL-4, IL-5, IL-6, IL-12p70, IFNγ, KC/GRO, TNFα, IL-10) [3] | observable adverse events (TAC mice [4]) |
| --- | --- | --- | --- | --- | --- | --- |
| CCCCOC(=O)NS(=O)(=O)c1ccc(OC(F)(F)F)cc1-c1ccc(Cn2ccnc2)cn1 [Compound 7] | unaffected | no significant effect | no significant effect | restored NOR memory to sham levels; also recorded: significantly increased cognition | decreased | no observable adverse events |
| A (1-7): comparator treatment in TAC mice, printed only as A (1-7) (DRVYIHP; Angiotensin 1-7; UniProt P01019 25-31, looked up) [reference compound] |  | significantly reduced | significantly reduced |  |  |  |
